Here are results for 10 compounds from patent US20130109721A1, “FAAH Inhibitors” (Ironwood Pharmaceuticals, Inc., priority 2009, published 2013).

Structures are written as SMILES.

The target of this test is T1, FAAH (Mus musculus, UniProt O08914).
T1 construct: Whole brain tissue from these mice was collected; from tissue; host or cells: CD-1 mouse whole brain membrane homogenate
T1 sequence (O08914 1-579): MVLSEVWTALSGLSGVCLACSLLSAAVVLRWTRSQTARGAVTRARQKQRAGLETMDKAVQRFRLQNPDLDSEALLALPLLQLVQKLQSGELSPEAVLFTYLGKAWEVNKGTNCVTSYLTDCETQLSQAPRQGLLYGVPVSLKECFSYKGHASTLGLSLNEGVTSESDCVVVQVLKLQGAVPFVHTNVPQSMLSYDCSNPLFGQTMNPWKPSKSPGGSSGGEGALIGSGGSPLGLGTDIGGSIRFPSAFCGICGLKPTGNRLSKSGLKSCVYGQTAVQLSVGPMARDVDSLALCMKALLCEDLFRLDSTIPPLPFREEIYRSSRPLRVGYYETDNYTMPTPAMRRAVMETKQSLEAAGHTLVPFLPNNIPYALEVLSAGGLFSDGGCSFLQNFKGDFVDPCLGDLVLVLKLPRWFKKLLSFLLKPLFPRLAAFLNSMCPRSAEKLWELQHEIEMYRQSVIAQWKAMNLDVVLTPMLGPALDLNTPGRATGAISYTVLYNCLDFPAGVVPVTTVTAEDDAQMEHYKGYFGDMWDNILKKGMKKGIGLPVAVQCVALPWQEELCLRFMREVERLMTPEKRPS
Put plainly: FAAH inhibition, mouse brain membrane homogenate assay. The class given is biochemical. The settings on record: average; FAAH extracted from mouse brain homogenate; read-out: Mouse Brain FAAH Extract IC50. How it is done: Adult rats (Charles River CD strain, female, 200 g) were anaesthetized with isofluorane and rapidly decapitated. Each brain was quickly removed and chilled in tubes (3 brains per tube) on ice. About 25 mL of “homogenization buffer” (20 mM HEPES buffer, pH 7.0, with 1 mM MgCl2) was added to 15 to 20 g of brain. The brains were homogenized on ice for 1 minute using an Omni GLH homogenizer (Omni International, Marietta, Ga.). The homogenates were then transferred to three centrifuge tubes and centrifuged at 36,500 g for 20 minutes at 4° C. The supernatant was discarded and each pellet was re-suspended in 25 mL homogenization buffer. The re-suspended material was again centrifuged (36,500 g, 20 minutes at 4° C.). Pellets were combined by resuspension in 10 mL of homogenization buffer and incubated in a 37° C. water bath for 15 minutes. The tubes were then placed on ice for 5 minutes followed by centrifugation at 36,500 g for 20 minutes at 4° C. The supernatant was discarded and the membrane pellets were then re-suspended in 40 mL of “resuspension buffer” (50 mM Tris-HCl buffer, pH 7.4, containing 1 mM EDTA and 3 mM MgCl2). A Bradford Protein assay was performed to determine protein concentration. The protein was aliquotted into screw cap Cryo tubes each containing ˜400 μL, flash frozen in liquid nitrogen and stored at −80° C. until used for the assay. A similar protocol was used to obtain brain membrane homogenates from mice.
Eighteen 10 to 12 week old female CD-1 mice housed at the animal care facility of Ironwood Pharmaceuticals were anesthetized by isoflurane anesthesia and rapidly decapitated using a small decapitator (Harvard Apparatus part #PY8 SS-0012, Holliston, Mass.). Whole brain tissue from these mice was collected (approximately 9.4 g total) and placed on aluminum foil sitting on dry ice to flash freeze the tissue. Tissue was thawed and used to prepare microsomes as described above for rat brain homogenates.
FAAH activity was assayed in the respective homogenates described herein (Rat brain, Mouse brain or Human brain) for certain exemplary substrate compounds using a modification of the method of Omeir et al. (1995 Life Sci 56:1999) and Fowler et al. (1997 J. Pharmacol Exp Ther 283:729). For assay of FAAH activity in rat brain membrane (RBM) homogenates, RBM homogenates (7 μg protein in 20 μL final volume of 10 mM Tris pH 6.5) were mixed with 180 μL of a mixture of the following: 2.0 μM unlabelled anandamide, 0.03 μCi radio labeled anandamide [ethanolamine 1-^3H] (40-60 Cis/mmol, product number ART-626, American Radiolabeled Chemicals, St. Louis, Mo.), 1 mg/mL Bovine Serum Albumin (fatty acid-free BSA, electrophoresis grade, Sigma, St. Louis, Mo.), 10 mM Tris-HCl (pH 6.5), and 1 mM EDTA in the presence and absence of test compounds (vehicle was DMSO at a final concentration of 1%) and incubated for 10 minutes at 37° C. Samples were placed on ice to terminate the reactions.
^3H-ethanolamine product and un-reacted ^3H-anandamide substrate were then separated either: (1) by using chloroform/methanol extraction or (2) by passing the reaction mixture through a glass fiber filter containing activated charcoal. Samples were extracted with chloroform/methanol by adding 0.4 mL of chloroform/methanol (1:1 v/v), vigorously mixing the samples, and separating the aqueous and organic phases by centrifugation. Radioactivity (corresponding to FAAH-catalyzed breakdown of ^3H-anandamide) found in aliquots (0.2 mL) of the aqueous phase was determined by liquid scintillation counting with quench correction. IC50 values were determined as described by Jonsson et al. (2001 Br. J. Pharmacol. 133:1263). Alternatively, reactions were purified using a modification of the solid-phase extraction method described by Wilson et al (2003 Anal. Biochem. 318:270). […]

A word on the IC50: it is the point on the concentration scale where inhibition reaches its midpoint. As for `Cc1c(C(=O)C(=O)Nc2cccc(Cl)c2)c2ccsc2n1Cc1ccc(Cl)cc1` [Compound I-08, 2-(6-(4-chlorobenzyl)-5-methyl-6H-thieno[2,3-b]pyrrol-4-yl)-N-(3-chlorophenyl)-2-oxoacetamide], the concentration for half-maximal inhibition (IC50) is greater than 5000 nM.

As to `COc1cc(NC(=O)C(=O)c2c(C)n(Cc3ccc(Cl)cc3)c3sccc23)ccn1` [Compound I-09, 2-(6-(4-chlorobenzyl)-5-methyl-6H-thieno[2,3-b]pyrrol-4-yl)-N-(2-methoxypyridin-4-yl)-2-oxoacetamide], the IC50 turned out to be 62 nM. The result for `Cc1c(C(=O)C(=O)Nc2cccc(Cl)c2)c2c(n1Cc1ccc(Cl)cc1)CCCCCC2` [Compound I-10, 2-(1-(4-chlorobenzyl)-2-methyl-4,5,6,7,8,9-hexahydro-1H-cycloocta[b]pyrrol-3-yl)-N-(3-chlorophenyl)-2-oxoacetamide] reads greater than 5000 nM; that for `COc1cc(NC(=O)C(=O)c2c3c(n(Cc4ccc(Cl)cc4)c2C)CCCCCC3)ccn1` [Compound I-11, 2-(1-(4-chlorobenzyl)-2-methyl-4,5,6,7,8,9-hexahydro-1H-cycloocta[b]pyrrol-3-yl)-N-(2-methoxypyridin-4-yl)-2-oxoacetamide], 192 nM. Regarding `Cc1c(C(=O)C(=O)Nc2cccc(Cl)c2)c2c(n1Cc1ccc(Cl)cc1)CCCCC2` [Compound I-12, 2-(1-(4-chlorobenzyl)-2-methyl-1,4,5,6,7,8-hexahydrocyclohepta[b]pyrrol-3-yl)-N-(3-chlorophenyl)-2-oxoacetamide], the IC50 was 1090 nM. The value for `COc1cc(NC(=O)C(=O)c2c3c(n(Cc4ccc(Cl)cc4)c2C)CCCCC3)ccn1` [Compound I-13, 2-(1-(4-chlorobenzyl)-2-methyl-1,4,5,6,7,8-hexahydrocyclohepta[b]pyrrol-3-yl)-N-(2-methoxypyridin-4-yl)-2-oxoacetamide] was 3 nM; that for `Cc1c(C(=O)C(=O)Nc2cccc(Cl)c2)c2c(n1Cc1ccc(Cl)cc1)CCC(C)(C)C2` [Compound I-14, 2-(1-(4-chlorobenzyl)-2,5,5-trimethyl-4,5,6,7-tetrahydro-1H-indol-3-yl)-N-(3-chlorophenyl)-2-oxoacetamide] was 516 nM; that for `COc1cc(NC(=O)C(=O)c2c3c(n(Cc4ccc(Cl)cc4)c2C)CCC(C)(C)C3)ccn1` [Compound I-15, 2-(1-(4-chlorobenzyl)-2,5,5-trimethyl-4,5,6,7-tetrahydro-1H-indol-3-yl)-N-(2-methoxypyridin-4-yl)-2-oxoacetamide] was 7 nM.

On to `Cc1c(C(=O)C(=O)Nc2cccc(Cl)c2)c2c(n1Cc1ccc(Cl)cc1)CCCC2` [Compound I-16, 2-(1-(4-chlorobenzyl)-2-methyl-4,5,6,7-tetrahydro-1H-indol-3-yl)-N-(3-chlorophenyl)-2-oxoacetamide], for which the IC50 amounted to 2080 nM. The value for `COc1cc(NC(=O)C(=O)c2c3c(n(Cc4ccc(Cl)cc4)c2C)CCCC3)ccn1` [Compound I-18, 2-(1-(4-chlorobenzyl)-2-methyl-4,5,6,7-tetrahydro-1H-indol-3-yl)-N-(2-methoxypyridin-4-yl)-2-oxoacetamide] was 9 nM.
